From patent US9242984B2, “Pyrazolyl derivatives as Syk inhibitors” (Merck Sharp & Dohme Corp., priority 2012, dated 2016)

Target: T1, recombinant human Syk (GST-hSyk fusion protein) (Homo sapiens, UniProt P43405)
T1 construct: purchased Carna Biosciences 08-176
Test: Homogeneous Time-Resolved Fluorescence (HTRF) assay for the recombinant human Syk enzyme
Type: biochemical
Conditions: 10-dose titration, 25 μM ATP; read-out: rhSYK IC50
Protocol: Syk inhibition may be determined using the following assay protocol:
Homogeneous Time-Resolved Fluorescence (HTRF) Assay for the Recombinant Human Syk Enzyme:
A recombinant GST-hSyk fusion protein was used to measure potency of compounds to inhibit human Syk activity. The recombinant human GST-Syk (Carna Biosciences #08-176) (5 pM final concentration) was incubated with various concentrations of the inhibitor diluted in DMSO (0.1% final concentration) for 10 minutes at room temperature in 15 mM Tris-HCl (pH 7.5), 0.01% tween 20, 2 mM DTT in 384 well plate format. To initiate the reaction the biotinylated substrate peptide (250 nM final concentration) that contains the phosphorylation site for Syk was added with magnesium (5 mM final concentration) and ATP (25 μM final concentration). Final volume of the reaction was 10 μL. Phosphorylation of the peptide was allowed to proceed for 45 minutes at room temperature. To quench the reaction and detect the phosphorylated product, 2 nM of a Europium-anti-phosphotyrosine antibody (Perkin Elmer #AD0161) and 70 nM SA-APC (Perkin-Elmer #CR130-100) were added together in 15 mM Tris pH 7.5, 40 mM EDTA, 0.01% tween 20. Final volume of the quenching solution was 10 μL. The resulting HTRF signal was measured after 30 minutes on an EnVision (Perkin-Elmer) reader using a time-resolved fluorescence protocol. IC50 was determined following 10-dose titration (10 μM to 0.508 nM) and four parameter logistic curve fitting using the Merck Assay Data Analyzer. The rhSyk activity (IC50) is expressed as +++(100 nM or less), ++(between 100 and 1000 nM), +(between 1 and 10 μM).

IC50 [nM] | Compound
5.9 | Cc1cc(Nc2nccc(C(F)F)n2)cc(-c2cnn(C3CCC(C)(C)C(O)C3(C)O)c2)c1 (stereo not drawn) [Example 22.8, 6-[4-(3-{[4-(difluoromethyl)pyrimidin-2-yl]amino}-5-methylphenyl)-1H-pyrazol-1-yl]-1,3,3-trimethylcyclohexane-1,2-diol]
1.1 | Cc1cc(Nc2nccc(C(F)F)n2)cc(-c2cnn(C3CC(C)(C)CC(C)(O)C3O)c2)c1 (stereo not drawn) [Example 22.9, 3-[4-(3-{[4-(difluoromethyl)pyrimidin-2-yl]amino}-5-methylphenyl)-1H-pyrazol-1-yl]-1,5,5-trimethylcyclohexane-1,2-diol]

Same assay, conditions: IC50 class; 10-dose titration, 25 μM ATP; read-out: rhSYK Activity

IC50 [nM] | Compound
≤ 100 | Cc1cc(Nc2nccc(C(F)F)n2)cc(-c2cnn(Cc3[nH]cnc3C)c2)c1 [Example 3.109, 4-(difluoromethyl)-N-(3-methyl-5-{1-[(4-methyl-1H-imidazol-5-yl)methyl]-1H-pyrazol-4-yl}phenyl)pyrimidin-2-amine]
100 to 1000 | Cc1cc(Nc2nccc(C(F)(F)F)n2)cc(-c2cnn(CC(O)COc3ccccc3)c2)c1 (stereo not drawn) [Example 5.8, 1-[4-(3-methyl-5-{[4-(trifluoro-methyl)pyrimidin-2-yl]amino}-phenyl)-1H-pyrazol-1-yl]-3-phenoxypropan-2-ol]
≤ 100 | Cc1cc(Nc2cc(C(F)(F)F)ccn2)nc(-c2cnn(C(=O)OC(C)(C)C)c2)c1 [Example 1.11, tert-butyl 4-(4-methyl-6-{[4-(trifluoromethyl)-pyridin-2-yl]amino}-pyridin-2-yl)-1H-pyrazole-1-carboxylate]
≤ 100 | Cc1cc(Nc2nccc(C)n2)cc(-c2cnn(CC3OC(=O)NC3(C)C)c2)c1 (stereo not drawn) [Example 3.106, 4,4-dimethyl-5-[(4-{3-methyl-5-[(4-methylpyrimidin-2-yl)amino]phenyl}-1H-pyrazol-1-yl)methyl]-1,3-oxazolidin-2-one]
100 to 1000 | CCOC(=O)CCc1cnn(-c2cc(C)cc(Nc3nccc(OC)n3)c2)c1 [Example 19.5, Ethyl 3-(1-{3-[(4-methoxypyrimidin-2-yl)amino]-5-methylphenyl}-1H-pyrazol-4-yl)propanoate]
≤ 100 | O=C(O)C1CCC(n2cc(-c3cc(Cl)cc(Nc4cc(C(F)(F)F)ccn4)n3)cn2)CC1 (stereo not drawn) [Example 1.55, 4-[4-(4-chloro-6-{[4-(trifluoromethyl)pyridin-2-yl]amino}pyridin-2-yl)-1H-pyrazol-1-yl]cyclohexanecarboxylic acid]
≤ 100 | Cc1cc(Nc2nccc(C(C)(C)C)n2)cc(-c2cnn(C[C@H](O)C(N)=O)c2)c1 [Example 6.7, (2S)-3-(4-{3-[(4-tert-butyl-pyrimidin-2-yl)amino]-5-methylphenyl}-1H-pyrazol-1-yl)-2-hydroxy-propanamide]
≤ 100 | Nc1cc(Nc2nccc(C(F)(F)F)n2)cc(-c2cnn(C3CCC(C(=O)O)CC3)c2)c1 (stereo not drawn) [Example 1.51, 4-[4-(3-amino-5-{[4-(trifluoromethyl)pyrimidin-2-yl]amino}phenyl)-1H-pyrazol-1-yl]cyclohexanecarboxylic acid]
≤ 100 | COc1nc(Nc2cc(C)cc(-c3cnn(C[C@@H](O)C(=O)O)c3)c2)ncc1Cl [Example 11.15, (2R)-3-(4-{3-[(5-chloro-4-methoxy-pyrimidin-2-yl)amino]-5-methyl-phenyl}-1H-pyrazol-1-yl)-2-hydroxy-propanoic acid]
≤ 100 | CC(O)c1ccnc(Nc2cccc(-c3cnn(C[C@](C)(O)CO)c3)c2)n1 (stereo partly drawn) [Example 2.93, (2S)-3-[4-(3-{[4-(1-hydroxyethyl)pyrimidin-2-yl]amino}phenyl)-1H-pyrazol-1-yl]-2-methylpropane-1,2-diol]
≤ 100 | Cc1cc(Nc2nccc(C(F)F)n2)cc(-c2cnn(CC3OC(=O)NC3(C)C)c2)c1 (stereo not drawn) [Example 3.102, 5-{[4-(3-{[4-(difluoromethyl)pyrimidin-2-yl]amino}-5-methylphenyl)-1H-pyrazol-1-yl]methyl}-4,4-dimethyl-1,3-oxazolidin-2-one]
≤ 100 | Cc1cc(Nc2cc(C(F)(F)F)ccn2)nc(-c2cnn(CC(=O)O)c2)c1 [Example 1.31, [4-(4-methyl-6-{[4-(trifluoromethyl)pyridin-2-yl]amino}pyridin-2-yl)-1H-pyrazol-1-yl]acetic acid]
≤ 100 | Cc1cc(Nc2nccc(OCCO)n2)cc(-c2cnn(C3CCC(C(N)=O)CC3)c2)c1 (stereo not drawn) [Example 8.17, 4-[4-(3-{[4-(2-hydroxy-ethoxy)pyrimidin-2-yl]amino}-5-methylphenyl)-1H-pyrazol-1-yl]-cyclo-hexanecarboxamide]
≤ 100 | Cc1cc(Nc2nccc(C(F)(F)F)n2)cc(-c2cnn(C[C@H]3COC(=O)N3)c2)c1 [Example 3.96, (4S)-4-{[4-(3-methyl-5-{[4-(trifluoromethyl)pyrimidin-2-yl]amino}phenyl)-1H-pyrazol-1-yl]methyl}-1,3-oxazolidin-2-one]
≤ 100 | Cc1cc(Nc2nccc(C(F)F)n2)cc(-c2cnn(CCc3cn[nH]c3)c2)c1 [Example 3.111, 4-(difluoromethyl)-N-(3-methyl-5-{1-[2-(1H-pyrazol-4-yl)ethyl]-1H-pyrazol-4-yl}phenyl)pyrimidin-2-amine]
≤ 100 | Cc1cc(Nc2nccc(C(F)F)n2)cc(-c2cnn(C3CCC(C)(C)C(O)C3(C)O)c2)c1 (stereo not drawn) [Example 22.8, 6-[4-(3-{[4-(difluoromethyl)pyrimidin-2-yl]amino}-5-methylphenyl)-1H-pyrazol-1-yl]-1,3,3-trimethylcyclohexane-1,2-diol]
≤ 100 | Cc1cc(Nc2nccc(C(F)(F)F)n2)cc(-c2cnn(C[C@@H](C)CO)c2)c1 [Example 3.4, (2r)-2-methyl-3-[4-(3-methyl-5-{[4-(trifluoromethyl)-pyrimidin-2-yl]-amino}phenyl)-1H-pyrazol-1-yl]-propan-1-ol]
100 to 1000 | CCOC(=O)CCn1cc(-c2cc(C)cc(Nc3cc(C)ccn3)n2)cn1 [Example 1.26, ethyl 3-(4-{4-methyl-6-[(4-methylpyridin-2-yl)amino]pyridin-2-yl}-1H-pyrazol-1-yl)propanoate]
≤ 100 | Cc1cc(Nc2nccc(C(F)(F)F)n2)cc(-c2cnn(C)c2)c1 [Example 1.3, N-[3-methyl-5-(1-methyl-1H-pyrazol-4-yl)phenyl]-4-(trifluoromethyl)-pyrimidin-2-amine]
≤ 100 | Cc1cc(Nc2nccc(C(F)F)n2)cc(-c2cnn(C3CC(C)(C)CC(C)(O)C3O)c2)c1 (stereo not drawn) [Example 22.9, 3-[4-(3-{[4-(difluoromethyl)pyrimidin-2-yl]amino}-5-methylphenyl)-1H-pyrazol-1-yl]-1,5,5-trimethylcyclohexane-1,2-diol]
≤ 100 | COc1nc(Nc2cc(C)cc(-c3cnn(CCC(N)=O)c3)c2)ncc1Cl [Example 2.7, 3-(4-{3-[(5-chloro-4-methoxypyrimidin-2-yl)amino]-5-methylphenyl}-1H-pyrazol-1-yl)propanamide]
100 to 1000 | Cc1cc(Nc2nccc(C)n2)cc(-c2cnn(C(C)(C)C(N)=O)c2)c1 [Example 8.10, 2-methyl-2-(4-{3-methyl-5-[(4-methyl-pyrimidin-2-yl)amino]-phenyl}-1H-pyrazol-1-yl)propanamide]
≤ 100 | Cc1cc(Nc2ncccn2)cc(-c2cnn(Cc3ccc(C(N)=O)cc3)c2)c1 [Example 2.57, 4-({4-[3-methyl-5-(pyrimidin-2-ylamino)phenyl]-1H-pyrazol-1-yl}methyl)benzamide]
≤ 100 | Cc1cc(Nc2nccc(C(F)F)n2)cc(-c2cnn(CC(C)(O)CO)c2)c1 (single isomer, unassigned) [Example 25.5, 3-[4-(3-{[4-(difluoromethyl)pyrimidin-2-yl]amino}-5-methylphenyl)-1H-pyrazol-1-yl]-2-methylpropane-1,2-diol]
≤ 100 | Cc1cc(Nc2nccc(C(C)(F)F)n2)cc(-c2cnn(CC(C)(O)C(C)(C)O)c2)c1 (stereo not drawn) [Example 22.4, 1-[4-(3-{[4-(1,1-difluoroethyl)pyrimidin-2-yl]amino}-5-methylphenyl)-1H-pyrazol-1-yl]-2,3-dimethylbutane-2,3-diol]
≤ 100 | Cc1cc(Nc2nccc(C(F)(F)F)n2)cc(-c2cnn(CC3OC(=O)NC3C(C)C)c2)c1 (single isomer, unassigned) [Example 23.3, 4-(1-methylethyl)-5-{[4-(3-methyl-5-{[4-(trifluoromethyl)pyrimidin-2-yl]amino}phenyl)-1H-pyrazol-1-yl]methyl}-1,3-oxazolidin-2-one]
≤ 100 | Cc1cc(Nc2nccc(C(F)F)n2)cc(-c2cnn(CC3CCNC(=O)O3)c2)c1 (stereo not drawn) [Example 2.78, 6-{[4-(3-{[4-(difluoromethyl)pyrimidin-2-yl]amino}-5-methylphenyl)-1H-pyrazol-1-yl]methyl}-1,3-oxazinan-2-one]
≤ 100 | Cc1cc(Nc2nccc(C(F)(F)F)n2)cc(-c2cnn(CC(O)CO)c2)c1 (racemic) [Example 5.15, 3-[4-(3-methyl-5-{[4-(trifluoromethyl)-pyrimidin-2-yl]amino}-phenyl)-1H-pyrazol-1-yl]propane-1,2-diol]
≤ 100 | Cc1cc(Nc2nccc(C(C)(F)F)n2)cc(-c2cnn(CC(C)(O)C(C)(C)O)c2)c1 (stereo not drawn) [Example 22.5, 1-[4-(3-{[4-(1,1-difluoroethyl)pyrimidin-2-yl]amino}-5-methylphenyl)-1H-pyrazol-1-yl]-2,3-dimethylbutane-2,3-diol]
≤ 100 | COC(=O)CCCn1cc(-c2cc(C)cc(Nc3nccc(C(F)(F)F)n3)c2)cn1 [Example 3.49, methyl 4-[4-(3-methyl-5-{[4-(trifluoromethyl)-pyrimidin-2-yl]amino}-phenyl)-1H-pyrazol-1-yl]butanoate]

Compound | IC50 [nM]
3-[4-(4-methyl-6-{[4-(trifluoromethyl)pyridin-2-yl]amino}pyrimidin-2-yl)-1H-pyrazol-1-yl]propanoic acid [Example 1.40] | ≤ 100
